The source of these data is patent publication US12600725B2 (Memorial Sloan-Kettering Cancer Center, priority 2013, dated 2026).

One assay concerns the target Hsp90α (Homo sapiens, UniProt P07900). In words: biochemical. The settings on record: FP competition, 6 nM Cy3B-GM, 10 nM protein, 4° C. for 24 h.
In a further assay the target is Grp94 (Canis lupus familiaris, UniProt P41148). The settings on record: read-out: Grp94; FP competition, 6 nM Cy3B-GM, 10 nM protein, 4° C. for 24 h.

Each structure is given as a SMILES string.

Chain of Grp94 (P41148 with tags, fused parts or gaps DELINS287-327GGGG): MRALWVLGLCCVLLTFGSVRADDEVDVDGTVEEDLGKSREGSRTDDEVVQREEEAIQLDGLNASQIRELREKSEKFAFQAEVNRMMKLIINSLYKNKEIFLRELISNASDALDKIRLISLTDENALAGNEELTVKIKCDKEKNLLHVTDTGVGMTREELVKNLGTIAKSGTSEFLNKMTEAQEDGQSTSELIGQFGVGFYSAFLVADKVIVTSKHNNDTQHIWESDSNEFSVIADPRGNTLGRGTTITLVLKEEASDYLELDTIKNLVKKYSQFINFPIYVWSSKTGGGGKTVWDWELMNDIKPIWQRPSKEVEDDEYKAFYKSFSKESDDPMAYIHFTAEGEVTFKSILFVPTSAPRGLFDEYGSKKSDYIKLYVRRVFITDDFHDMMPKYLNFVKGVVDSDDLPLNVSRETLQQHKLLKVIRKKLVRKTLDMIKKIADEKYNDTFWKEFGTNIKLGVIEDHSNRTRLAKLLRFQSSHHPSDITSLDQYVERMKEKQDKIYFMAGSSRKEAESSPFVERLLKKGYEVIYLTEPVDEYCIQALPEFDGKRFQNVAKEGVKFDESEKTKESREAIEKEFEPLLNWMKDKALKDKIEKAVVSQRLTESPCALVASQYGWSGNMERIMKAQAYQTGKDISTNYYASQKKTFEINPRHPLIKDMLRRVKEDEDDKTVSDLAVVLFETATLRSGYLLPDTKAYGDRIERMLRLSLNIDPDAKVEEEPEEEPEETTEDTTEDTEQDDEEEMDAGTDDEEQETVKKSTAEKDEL

For the compound `Nc1ncn(CCCC(F)(F)F)c2nc(Sc3cc(Cl)cc(Cl)c3)nc1-2`, the IC50 was over 50 µM at Hsp90α and over 10 µM at Grp94.

Turning to `C#CCCCn1c(Sc2cc(C#N)cc(C#N)c2)nc2c(N)ncnc21` [HJP-III-26, 5-((6-Amino-9-(pent-4-yn-1-yl)-9H-purin-8-yl)thio)isophthalonitrile], on Hsp90α, the IC50 worked out at 60.3 µM.

As for `C#CCCCn1c(Sc2ccc(C#N)c(C(F)(F)F)c2)nc2c(N)ncnc21` [HJP-III-29, 4-((6-Amino-9-(pent-4-yn-1-yl)-9H-purin-8-yl)thio)-2-(trifluoromethyl)benzonitrile], the figures for the IC50 on Hsp90α and at Grp94 were 4.51 µM and 2.41 µM, respectively.

With `C#CCCCn1c(Sc2ccc(C#N)c(Br)c2)nc2c(N)ncnc21` [HJP-III-32, 4-((6-Amino-9-(pent-4-yn-1-yl)-9H-purin-8-yl)thio)-2-bromobenzonitrile], the IC50 came out at 14.3 µM on Hsp90α and 4.28 µM on Grp94.

`C#CCCCn1c(Sc2ccc(C#N)c(Cl)c2)nc2c(N)ncnc21` [HJP-III-33, 4-((6-Amino-9-(pent-4-yn-1-yl)-9H-purin-8-yl)thio)-2-chlorobenzonitrile]: the IC50 worked out at 7.6 µM on Hsp90α and 3.45 µM at Grp94.

Consider `C#CCCCn1c(Cc2c(C)cc(C)cc2C)nc2c(N)ncnc21` [HJP-V-36, 9-(Pent-4-yn-1-yl)-8-(2,4,6-trimethylbenzyl)-9H-purin-6-amine], for which the IC50 on Hsp90α is over 10 µM; at Grp94 it was over 5 µM.

`C#CCCCn1c(Cc2ccc(Cl)cc2Cl)nc2c(N)ncnc21` [HJP-V-37, 8-(2,4-Dichlorobenzyl)-9-(pent-4-yn-1-yl)-9H-purin-6-amine]: the values for the IC50 at Hsp90α and at Grp94 were over 10 µM and 0.7 µM, respectively.

On to `C#CCCCn1c(C(=O)c2ccc(Cl)cc2Cl)nc2c(N)ncnc21` [HJP-V-37T, (6-Amino-9-(pent-4-yn-1-yl)-9H-purin-8-yl)(2,4-dichlorophenyl)methanone], for which the values for the IC50 at Hsp90α and on Grp94 were over 25 µM and 0.13 to 0.17 µM, respectively.

As for `C#CCCCn1c(Cc2c(Cl)cccc2Cl)nc2c(N)ncnc21` [HJP-V-38, 8-(2,6-Dichlorobenzyl)-9-(pent-4-yn-1-yl)-9H-purin-6-amine], the IC50 was determined as 14.4 µM at Hsp90α and 13.8 µM at Grp94.

`C#CCCCn1c(Cc2cc(Cl)cc(Cl)c2)nc2c(N)ncnc21` [HJP-V-39, 8-(3,5-Dichlorobenzyl)-9-(pent-4-yn-1-yl)-9H-purin-6-amine]: the IC50 is over 10 µM at Hsp90α and 0.5 µM on Grp94.

Regarding `C#CCCCn1c(C(=O)c2cc(Cl)cc(Cl)c2)nc2c(N)ncnc21` [HJP-V-39T, (6-Amino-9-(pent-4-yn-1-yl)-9H-purin-8-yl)(3,5-dichlorophenyl)methanone], the IC50 at Hsp90α is over 10 µM.

As to `C#CCCCn1c(Oc2ccc(Cl)cc2Cl)nc2c(N)ncnc21` [HJP-V-45, 8-(2,4-Dichlorophenoxy)-9-(pent-4-yn-1-yl)-9H-purin-6-amine], the IC50 is over 10 µM at Hsp90α and 0.5 µM at Grp94.

As for `C#CCCCn1c(Cc2cc(Cl)ccc2Cl)nc2c(N)ncnc21` [HJP-V-54, 8-(2,5-Dichlorobenzyl)-9-(pent-4-yn-1-yl)-9H-purin-6-amine], the IC50 is over 10 µM at Hsp90α and 0.75 µM on Grp94.

In turn, `C#CCCCn1c(Cc2cccc(Cl)c2Cl)nc2c(N)ncnc21` [HJP-V-55, 8-(2,3-Dichlorobenzyl)-9-(pent-4-yn-1-yl)-9H-purin-6-amine] gave an IC50 at Hsp90α of over 10 µM.

Consider `C#CCCCn1c([S+]([O-])c2ccc(Cl)cc2Cl)nc2c(N)ncnc21` (stereo not shown) [HJP-V-62M, 8-((2,4-Dichlorophenyl)sulfinyl)-9-(pent-4-yn-1-yl)-9H-purin-6-amine], for which the IC50 at Hsp90α was 24.1 µM; at Grp94 it was 5.4 µM.

Regarding `C#CCCCn1c(S(=O)(=O)c2ccc(Cl)cc2Cl)nc2c(N)ncnc21` [HJP-V-62T, 8-((2,4-Dichlorophenyl)sulfonyl)-9-(pent-4-yn-1-yl)-9H-purin-6-amine], the IC50 at Hsp90α was over 25 µM; at Grp94, 4.7 µM.

As to `CC(O)CNCCn1c(Sc2ccc(Cl)cc2Cl)nc2c(N)ncnc21` (stereo not shown) [HJP-V-82, 1-((2-(6-Amino-8-((2,4-dichlorophenyl)thio)-9H-purin-9-yl)ethyl)amino)propan-2-ol], the IC50 is 31.3 µM on Hsp90α and 0.23 µM on Grp94.

As for `CC(CO)NCCn1c(Sc2ccc(Cl)cc2Cl)nc2c(N)ncnc21` (stereo not shown) [HJP-V-86, 2-((2-(6-Amino-8-((2,4-dichlorophenyl)thio)-9H-purin-9-yl)ethyl)amino)propan-1-ol], the IC50 was 7.6 µM on Hsp90α and 0.21 µM on Grp94.

Regarding `Nc1ncnc2c1nc(Sc1ccc(Cl)cc1Cl)n2CCc1ccccn1` [HJP-V-93, 8-((2,4-Dichlorophenyl)thio)-9-(2-(pyridin-2-yl)ethyl)-9H-purin-6-amine], the IC50 is over 50 µM on Hsp90α and 1.9 µM at Grp94.

Regarding `Nc1ncnc2c1nc(Sc1ccc(Cl)cc1Cl)n2CCc1ccccc1F` [HJP-V-96, 8-((2,4-Dichlorophenyl)thio)-9-(2-fluorophenethyl)-9H-purin-6-amine], the IC50 at Hsp90α is over 50 µM; at Grp94 it was 1.9 µM.

As to `Nc1ncnc2c1nc(Sc1ccc(Cl)cc1Cl)n2CCc1ccccc1Cl` [HJP-V-97, 9-(2-Chlorophenethyl)-8-((2,4-dichlorophenyl)thio)-9H-purin-6-amine], the IC50 came to 186 µM on Hsp90α and 2.2 µM on Grp94.

As to `Nc1ncnc2c1nc(Sc1ccc(Cl)cc1Cl)n2CCc1ccccc1C(F)(F)F` [HJP-V-98, 8-((2,4-Dichlorophenyl)thio)-9-(2-(trifluoromethyl)phenethyl)-9H-purin-6-amine], the IC50 on Hsp90α is over 50 µM; on Grp94, 0.71 µM.

Consider `CC(C)NCCCn1c(Sc2cc(Cl)c(Cl)cc2Cl)nc2c(N)ncnc21` [HJP-V-103-N9, 9-(3-(Isopropylamino)propyl)-8-((2,4,5-trichlorophenyl)thio)-9H-purin-6-amine], for which the figures for the IC50 on Hsp90α and at Grp94 were 5.8 µM and 0.35 µM, respectively.

Turning to `C[C@@H](O)CNCCn1c(Sc2ccc(Cl)cc2Cl)nc2c(N)ncnc21` [HJP-V-104, 1(R)-1-((2-(6-Amino-8-((2,4-dichlorophenyl)thio)-9H-purin-9-yl)ethyl)amino)propan-2-ol], the IC50 on Hsp90α amounted to 55.8 µM; on Grp94 it was 1.5 µM.

Take `C[C@H](O)CNCCn1c(Sc2ccc(Cl)cc2Cl)nc2c(N)ncnc21` [HJP-V-105, 1(S)-1-((2-(6-Amino-8-((2,4-dichlorophenyl)thio)-9H-purin-9-yl)ethyl)amino)propan-2-ol]: the IC50 on Hsp90α is over 50 µM; on Grp94, 0.35 µM.

Turning to `C#CCN(CCO)CCn1c(Sc2ccc(Cl)cc2Cl)nc2c(N)ncnc21` [HJP-V-110, 2-((2-(6-Amino-8-((2,4-dichlorophenyl)thio)-9H-purin-9-yl)ethyl)(prop-2-yn-1-yl)amino)ethanol], the values for the IC50 at Hsp90α and at Grp94 were over 50 µM and 0.6 µM, respectively.

Consider `CCCC(C)n1c(Sc2ccc(Cl)cc2Cl)nc2c(N)ncnc21` (stereo not shown) [HJP-V-114, 8-((2,4-Dichlorophenyl)thio)-9-(pentan-2-yl)-9H-purin-6-amine], for which the IC50 on Hsp90α is over 50 µM; at Grp94 it was 2.48 µM.

`Nc1ncnc2c1nc(Sc1ccc(Cl)cc1Cl)n2CCc1cccnc1` [HJP-V-116, 8-((2,4-Dichlorophenyl)thio)-9-(2-(pyridin-3-yl)ethyl)-9H-purin-6-amine]: the IC50 is over 50 µM on Hsp90α and 0.12 to 0.3 µM on Grp94.

As to `C#CCC(CC)n1c(Sc2ccc(Cl)cc2Cl)nc2c(N)ncnc21` (stereo not shown) [HJP-V-117, 8-((2,4-dichlorophenyl)thio)-9-(hex-5-yn-3-yl)-9H-purin-6-amine], the IC50 at Grp94 amounted to 0.92 µM.

`Nc1ncnc2c1nc(Sc1ccc(Cl)cc1Cl)n2CCc1ccncc1` [HJP-V-118, 8-((2,4-Dichlorophenyl)thio)-9-(2-(pyridin-4-yl)ethyl)-9H-purin-6-amine]: the IC50 at Hsp90α was over 50 µM; on Grp94, 1.03 µM.

For `CC(O)CNCCCn1c(Sc2cc(Cl)cc(Cl)c2)nc2c(N)ncnc21` (stereo not shown) [HJP-V-130, 1-((3-(6-amino-8-((3,5-dichlorophenyl)thio)-9H-purin-9-yl)propyl)amino)propan-2-ol], the IC50 on Hsp90α amounted to 51.7 µM; at Grp94 it was 0.37 µM.

As to `C#CCN(CCO)CCCn1c(Sc2cc(Cl)cc(Cl)c2)nc2c(N)ncnc21` [HJP-V-132, 2-((3-(6-amino-8-((3,5-dichlorophenyl)thio)-9H-purin-9-yl)propyl)(prop-2-yn-1-yl)amino)ethanol], the IC50 was determined as 26.6 µM on Hsp90α and 0.81 µM at Grp94.

Consider `CC(C)NCCCn1c(Sc2cc(Cl)cc(Cl)c2I)nc2c(N)ncnc21` [HJP-V-145], for which, on Grp94, the IC50 was determined as 0.68 µM.

At Hsp90α, `CC(C)NCCCn1c(Sc2ccc(F)cc2Cl)nc2c(N)ncnc21` [HJP-VI-25, 8-((2-chloro-4-fluorophenyl)thio)-9-(3-(isopropylamino)propyl)-9H-purin-6-amine] returned an IC50 of over 50 µM.

`CC(C)NCCCn1c(Sc2ccc(Cl)cc2N)nc2c(N)ncnc21` [HJP-VI-34, 8-((2-amino-4-chlorophenyl)thio)-9-(3-(isopropylamino)propyl)-9H-purin-6-amine] displayed an IC50 on Hsp90α of over 50 µM.

Consider `CC#Cc1cc(Cl)cc(Sc2nc3c(N)ncnc3n2CCCNC(C)C)c1` [HJP-VI-50, 8-((3-chloro-5-(prop-1-yn-1-yl)phenyl)thio)-9-(3-(isopropylamino)propyl)-9H-purin-6-amine], for which the IC50 on Hsp90α was over 50 µM.

With `CC(C)NCCCn1c(Sc2cc(Cl)cc(Cl)c2)nc2c(N)nc(F)nc21` [HJP-VI-69, 8-((3,5-dichlorophenyl)thio)-2-fluoro-9-(3-(isopropylamino)propyl)-9H-purin-6-amine], the IC50 at Grp94 turned out to be 0.135 µM.

For `C/C=C(\C)c1cc(Cl)cc(Sc2nc3c(N)ncnc3n2CCCNC(C)C)c1` [HJP-VI-79, (E)-8-((3-(but-2-en-2-yl)-5-chlorophenyl)thio)-9-(3-(isopropylamino)propyl)-9H-purin-6-amine], the IC50 on Grp94 was 0.124 µM.

`C#CCCCn1cnc(N)c2nc(Sc3cc(Cl)cc(Cl)c3)nc1-2` [PU-H41] had an IC50 on Hsp90α of over 100 µM.
